This is an account of results in ChEMBL document CHEMBL1201862, “PubChem BioAssay data set” (2004).

SMILES strings stand for the structures.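 All cell lines were grown in 96-well plates and treated with compound for 48 hours. GI50 marks 50% less growth.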 Calls of active or inactive are those of the source. Cut-off read from the data, not from the text of the source: active = GI50 up to about 1.1 µM and inactive = higher.

Some test systems named below: SK-MEL-2; NCI-H226; UO-31; SNB-75; 786-0; COLO 205; HCT-15; M14; SF-268; Malme-3M; NCI-H460; A549; HOP-92; HCC 2998; UACC-62; OVCAR-5; SF-295; SR.
What all share (test): NCI tumour cell line growth inhibition, 48 h

For the compound `CC(=O)OC1(C#N)CC2OC1C1NC21` (stereo unspecified), the GI50 in the experiment on SK-MEL-2, in the experiment with NCI-H226, in the experiment with UO-31, in the experiment with SNB-75, in the experiment with 786-0 and in the experiment on COLO 205 was > 100 µM (inactive) in each case. Also, the GI50 in the experiment on HCT-15 is > 100 µM; in the experiment with M14, > 100 µM (inactive); in the experiment with SF-268, > 100 µM (inactive); with Malme-3M it was > 100 µM (inactive); with NCI-H460, > 100 µM (inactive); with A549, > 100 µM (inactive). Also, the GI50 in the experiment on HOP-92, in the experiment with HCC 2998, in the experiment on UACC-62 and in the experiment with OVCAR-5 was > 100 µM (inactive) in each case.
With `CCc1ccccc1NC(=O)C1=C(C)NC(C)=C(C(=O)Nc2ccccc2CC)C1c1ccc2c(c1)OCO2`, the GI50 was 19.2 µM (inactive) with SK-MEL-2; 24.3 µM (inactive) in the experiment with NCI-H226; 18.5 µM (inactive) with UO-31; 23.7 µM (inactive) with SNB-75; 30.4 µM (inactive) in the experiment with 786-0; 29 µM (inactive) in the experiment with COLO 205. Also, the GI50 in the experiment with M14 is 26.2 µM (inactive); in the experiment with SF-268, 25.2 µM (inactive); in the experiment with Malme-3M, 25.3 µM (inactive); in the experiment on NCI-H460, 34.1 µM (inactive); in the experiment on A549, 29.1 µM (inactive); in the experiment with HOP-92 it was 13.6 µM (inactive). In addition, the results for the GI50 with HCC 2998, in the experiment with SF-295 and in the experiment with OVCAR-5 were 15.1 µM (inactive), 33.3 µM (inactive) and 27.1 µM (inactive), respectively.
With `CN[C@H](C)[C@@H](OC)c1ccccc1`, the GI50 with SK-MEL-2 is > 100 µM (inactive); with NCI-H226, > 100 µM (inactive); with UO-31, > 100 µM (inactive); in the experiment on SNB-75, 61.4 µM (inactive); in the experiment with 786-0, > 100 µM (inactive); with COLO 205 it was > 100 µM (inactive). Besides, the GI50 with HCT-15 was > 100 µM; in the experiment with M14, > 100 µM (inactive); in the experiment on Malme-3M it was > 100 µM (inactive); with NCI-H460 it was > 100 µM (inactive); in the experiment with A549, > 100 µM (inactive); in the experiment with HOP-92, > 100 µM (inactive). In addition, the GI50 in the experiment on HCC 2998, in the experiment on UACC-62, with SF-295 and in the experiment with OVCAR-5 was > 100 µM (inactive) each time.
In the case of `N#CC(C(=N/O)/C(=N/O)C(C#N)c1ccc(Cl)cc1)c1ccc(Cl)cc1` (stereo unspecified), the GI50 in the experiment on SK-MEL-2 was > 100 µM (inactive); in the experiment with NCI-H226, 75.5 µM (inactive); in the experiment with UO-31 it was > 100 µM (inactive); in the experiment on SNB-75, 42 µM (inactive); in the experiment on 786-0 it was > 100 µM (inactive); in the experiment on COLO 205 it was 64.6 µM (inactive). The GI50 with HCT-15 is 55.2 µM; with M14 it was > 100 µM (inactive); in the experiment on SF-268, > 100 µM (inactive); in the experiment with Malme-3M, > 100 µM (inactive); with NCI-H460, > 100 µM (inactive); with A549, > 100 µM (inactive). In addition, the GI50 in the experiment with HOP-92 was > 100 µM (inactive); in the experiment on HCC 2998 it was 84.1 µM (inactive); in the experiment on UACC-62 it was 91.4 µM (inactive); in the experiment on SF-295 it was > 100 µM (inactive); in the experiment with OVCAR-5, > 100 µM (inactive).
Turning to `CC(=O)NC(CCCCNCc1ccccc1)C(=O)NCc1ccccc1` (stereo unspecified), the GI50 is > 100 µM (inactive) in the experiment with SK-MEL-2; > 100 µM (inactive) in the experiment on NCI-H226; > 100 µM (inactive) in the experiment with UO-31; 30.5 µM (inactive) in the experiment on SNB-75; > 100 µM (inactive) with 786-0; > 100 µM (inactive) in the experiment on COLO 205. Also, the GI50 with HCT-15 was > 100 µM; in the experiment with M14, > 100 µM (inactive); with SF-268, > 100 µM (inactive); in the experiment with Malme-3M, > 100 µM (inactive); with NCI-H460 it was > 100 µM (inactive); in the experiment with A549, > 100 µM (inactive). Also, the GI50 in the experiment with HOP-92, with HCC 2998, with UACC-62, in the experiment with SF-295 and with OVCAR-5 was > 100 µM (inactive) each time.
As to `Cc1ccc(C)c(NC(=O)c2cccc([N+](=O)[O-])c2O)c1`, the GI50 is 16.6 µM (inactive) with NCI-H226; 16.5 µM (inactive) in the experiment on UO-31; 20.4 µM (inactive) in the experiment on SNB-75; 44.1 µM (inactive) in the experiment with 786-0; 17.3 µM (inactive) in the experiment on COLO 205; 28.8 µM in the experiment on HCT-15. Also, the GI50 was 55.6 µM (inactive) with M14; 22 µM (inactive) in the experiment with SF-268; 17.8 µM (inactive) in the experiment with Malme-3M; 20.9 µM (inactive) in the experiment with NCI-H460; 25.5 µM (inactive) with A549; 12.7 µM (inactive) in the experiment with HOP-92. The GI50 was 28.3 µM (inactive) in the experiment with HCC 2998, 5.74 µM (inactive) with UACC-62, 18.4 µM (inactive) with SF-295 and 87.7 µM (inactive) with OVCAR-5.
Take `CC(=O)OCC(OC(C)=O)C(OC(C)=O)C(OC(C)=O)C(=O)CNn1c(-c2ccccc2Cl)nc2ccc(Br)cc2c1=O` (stereo unspecified): the GI50 was > 100 µM (inactive) in the experiment with SK-MEL-2; 85.5 µM (inactive) in the experiment with UO-31; 59.8 µM (inactive) in the experiment with SNB-75; > 100 µM (inactive) with 786-0; > 100 µM (inactive) in the experiment on COLO 205; 43.8 µM (inactive) in the experiment with SR. Also, the GI50 in the experiment on HCT-15 was 78.7 µM; with M14, > 100 µM (inactive); in the experiment with SF-268, > 100 µM (inactive); in the experiment with Malme-3M, > 100 µM (inactive); in the experiment on NCI-H460 it was > 100 µM (inactive); in the experiment with A549, > 100 µM (inactive). Besides, the GI50 was 30.6 µM (inactive) in the experiment on UACC-62, > 100 µM (inactive) in the experiment with SF-295 and > 100 µM (inactive) in the experiment with OVCAR-5.
Turning to `Nc1ccccc1S(=O)(=O)N(CC(=O)O)c1ccccc1`, the GI50 in the experiment with SK-MEL-2 was > 100 µM (inactive); in the experiment on UO-31 it was > 100 µM (inactive); in the experiment with SNB-75, > 100 µM (inactive); in the experiment with 786-0 it was > 100 µM (inactive); in the experiment with COLO 205, > 100 µM (inactive); in the experiment with HCT-15 it was > 100 µM. The GI50 in the experiment on M14, in the experiment on SF-268, in the experiment on Malme-3M, with NCI-H460, in the experiment with A549 and in the experiment on HOP-92 was > 100 µM (inactive) in each case. Besides, the GI50 in the experiment on UACC-62 and with OVCAR-5 was > 100 µM (inactive) throughout.
As for `Oc1cccnc1/C=N/OCc1ccccc1`, the GI50 in the experiment with SK-MEL-2 was > 100 µM (inactive); in the experiment on NCI-H226, > 100 µM (inactive); in the experiment on UO-31, 68.2 µM (inactive); with SNB-75 it was > 100 µM (inactive); in the experiment with 786-0, > 100 µM (inactive); with COLO 205, > 100 µM (inactive). The GI50 is > 100 µM in the experiment with HCT-15; > 100 µM (inactive) in the experiment with M14; > 100 µM (inactive) with SF-268; > 100 µM (inactive) in the experiment with Malme-3M; > 100 µM (inactive) in the experiment on NCI-H460; > 100 µM (inactive) in the experiment on A549. The GI50 in the experiment with HCC 2998, in the experiment with UACC-62, in the experiment on SF-295 and with OVCAR-5 was > 100 µM (inactive) each time.
With `COC1=CC(=O)C2C(C1=O)[C@@H]1c3ccccc3OC[C@H]21` (stereo partly specified), the GI50 with SK-MEL-2, in the experiment with NCI-H226, in the experiment with UO-31, in the experiment with SNB-75, in the experiment on 786-0 and with COLO 205 was > 100 µM (inactive) in each case. Moreover, the GI50 in the experiment on HCT-15 was > 10 µM; in the experiment with M14, > 100 µM (inactive); in the experiment with SF-268, > 100 µM (inactive); in the experiment with Malme-3M, > 100 µM (inactive); in the experiment with NCI-H460 it was > 100 µM (inactive); in the experiment on A549, > 100 µM (inactive). The GI50 with HOP-92, in the experiment on HCC 2998, in the experiment on SF-295 and in the experiment with OVCAR-5 was > 100 µM (inactive) in each case.
On to `N=C(N)NS(=O)(=O)c1ccc(NCc2c3ccccc3[n+]([O-])c3ccccc23)cc1`, for which the GI50 in the experiment with SK-MEL-2 is 40.2 µM (inactive); in the experiment on NCI-H226, 9.55 µM (inactive); with UO-31, 15.2 µM (inactive); in the experiment with SNB-75 it was 13.5 µM (inactive); in the experiment with 786-0 it was 19.7 µM (inactive); in the experiment on COLO 205, 68.5 µM (inactive). Further, the GI50 in the experiment with HCT-15 is 18.4 µM; with M14 it was 46.6 µM (inactive); in the experiment on SF-268 it was 11.8 µM (inactive); in the experiment with Malme-3M it was 20 µM (inactive); in the experiment with NCI-H460 it was 3.43 µM (inactive); with A549, 17.6 µM (inactive). In addition, the GI50 with HOP-92 is 0.394 µM (active); in the experiment with HCC 2998, 13.4 µM (inactive); in the experiment on UACC-62, 22.5 µM (inactive); in the experiment on SF-295, 18.7 µM (inactive); with OVCAR-5, > 100 µM (inactive).
Take `Cc1ccc(S(=O)(=O)NC2CCCCO2)cc1` (stereo unspecified): the GI50 in the experiment with NCI-H226 is > 100 µM (inactive); with UO-31, > 100 µM (inactive); in the experiment on SNB-75, > 100 µM (inactive); in the experiment with 786-0, > 100 µM (inactive); in the experiment on COLO 205 it was > 100 µM (inactive); in the experiment on HCT-15, > 100 µM. Moreover, the GI50 with M14, in the experiment with SF-268, with Malme-3M, in the experiment on NCI-H460, in the experiment with A549 and with HOP-92 was > 100 µM (inactive) in each case. For the same compound, the GI50 in the experiment with HCC 2998, in the experiment with UACC-62 and with OVCAR-5 was > 100 µM (inactive) throughout.
For `O=c1cccccc1NCCCCNc1cccccc1=O`, the GI50 with SK-MEL-2 was > 100 µM (inactive); in the experiment on NCI-H226, 73.6 µM (inactive); in the experiment with UO-31 it was 42 µM (inactive); in the experiment on SNB-75 it was > 100 µM (inactive); with 786-0 it was > 100 µM (inactive); in the experiment with COLO 205 it was > 100 µM (inactive). Besides, the GI50 was 84.7 µM with HCT-15; 55.7 µM (inactive) in the experiment with M14; 41.4 µM (inactive) in the experiment with SF-268; 29.4 µM (inactive) in the experiment with Malme-3M; > 100 µM (inactive) in the experiment with NCI-H460; 59.2 µM (inactive) with A549. Besides, the GI50 with HCC 2998 is 85.3 µM (inactive); with UACC-62, 72.6 µM (inactive); in the experiment on SF-295, > 100 µM (inactive); in the experiment with OVCAR-5, > 100 µM (inactive).
